Experimental data published in the supplement of paper PMC10331698.
± gives the standard deviation of the averaged measurements.

How the values were obtained:
Test in all cases: level (log10 ratio to DMSO vehicle control); higher = higher biomarker level / cell amount than vehicle control
[1] = compound: O=S(=O)(O)C(F)(F)C(F)(F)C(F)(F)C(F)(F)C(F)(F)C(F)(F)C(F)(F)F [Perfluoroheptanesulfonic acid] (in DMSO)
Procedure: (§1)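 BioMAP Diversity Plus panel of 12 human primary cell co-culture systems (3C, 4H, LPS, SAg, BT, BF4T, BE3C, CASM3C, HDF3CGF, KF3CT, MyoF, Mphg). Compounds were added 1 h before stimulation and left for 24 h (MyoF 48 h; BT 72 h for soluble read-outs or 6 d for IgG). Biomarkers were read by ELISA, cytotoxicity by SRB, PBMC viability and proliferation by Alamar Blue. Each well value was divided by the mean of 8 DMSO control wells on the same plate and log10 transformed; duplicate blinded samples were tested at 4 concentrations.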

[2] = compound: OCC(F)(F)OC(F)(F)C(F)(F)OC(F)(F)C(F)(F)OC(F)(F)CO [1H,1H,11H,11H-Perfluorotetraethylene glycol] (in DMSO)
Procedure: as §1

[3] = compound: O=C(O)C=C(C(F)(F)F)C(F)(F)F [3,3-Bis(trifluoromethyl)-2-propenoic acid] (in DMSO)
Procedure: as §1

Octafluoroadipic acid = compound: O=C(O)C(F)(F)C(F)(F)C(F)(F)C(F)(F)C(=O)O [Octafluoroadipic acid] (in DMSO)
Procedure: as §1

[4] = compound: NS(=O)(=O)C(F)(F)C(F)(F)C(F)(F)C(F)(F)C(F)(F)C(F)(F)C(F)(F)C(F)(F)F [Perfluorooctanesulfonamide] (in DMSO)
Procedure: as §1

[5] = compound: CCOC(=O)CC(=O)C(F)(F)C(F)(F)F [Ethyl pentafluoropropionyl acetate] (in DMSO)
Procedure: as §1

Test System	level (log10) ([1]; 1500 nM)	level (log10) ([1]; 4400 nM)	level (log10) ([1]; 13000 nM)	level (log10) ([1]; 40000 nM)	level (log10) ([2]; 6700 nM)	level (log10) ([2]; 20000 nM)	level (log10) ([2]; 60000 nM)	level (log10) ([3]; 6700 nM)	level (log10) ([3]; 20000 nM)	level (log10) ([3]; 60000 nM)	level (log10) (Octafluoroadipic acid; 6700 nM)	level (log10) (Octafluoroadipic acid; 20000 nM)	level (log10) (Octafluoroadipic acid; 60000 nM)	level (log10) ([4]; 6700 nM)	level (log10) ([4]; 20000 nM)	level (log10) ([5]; 6700 nM)	level (log10) ([5]; 20000 nM)	level (log10) ([5]; 60000 nM)
3C:CD87/uPAR	0.0655 ± 0.0078	0.0535 ± 0.021	0.0485 ± 0.044	0.0565 ± 0.064	0.008 ± 0.03	-0.007 ± 0.023	-0.0005 ± 0.011	0.0225 ± 0.0035	0.014 ± 0.02	-0.0035 ± 0.013	-0.023 ± 0.0057	-0.0175 ± 0.025	-0.014 ± 0.021	0.006 ± 0.0099	-0.0425 ± 0.016	0.011 ± 0.0042	0.0075 ± 0.00071	-0.003 ± 0.011
3C:CXCL8/IL-8	0.007 ± 0.086	-0.0115 ± 0.013	0.0015 ± 0.03	0.055 ± 0.054	0.003 ± 0.025	-0.009 ± 0.0099	-0.0045 ± 0.0035	0.038 ± 0.02	0.0255 ± 0.04	0.061 ± 0.071	0.001 ± 0.024	-0.0095 ± 0.005	0.0215 ± 0.025	0.012 ± 0.018	0.0635 ± 0.0064	-0.0105 ± 0.0092	-0.006 ± 0.0071	0.022 ± 0.031
3C:CXCL9/MIG	0.006 ± 0.0014	-0.006 ± 0.0071	0 ± 0.0057	0.0075 ± 0.011	0.0095 ± 0.022	0.0065 ± 0.026	0.012 ± 0.0028	-0.015 ± 0.017	-0.004 ± 0.028	0.013 ± 0.025	-0.002 ± 0.0028	-0.0095 ± 0.015	0.006 ± 0.0085	0.0225 ± 0.021	0.006 ± 0.028	0.001 ± 0.0028	-0.0015 ± 0.0092	0.0025 ± 0.0078
3C:HLA-DR	0.0125 ± 0.0064	-0.0075 ± 0.0092	-0.005 ± 0.024	0.008 ± 0.016	-0.0055 ± 0.049	-0.001 ± 0.023	-0.047 ± 0.028	-0.012 ± 0.014	-0.0415 ± 0.039	-0.189 ± 0.031	-0.007 ± 0.0099	-0.004 ± 0.021	0.0035 ± 0.0078	-0.0115 ± 0.043	-0.118 ± 0.082	0.019 ± 0.0099	0.0125 ± 0.054	0.01 ± 0.047
3C:Proliferation	-0.0785 ± 0.13	-0.0425 ± 0.044	0.0015 ± 0.022	-0.0275 ± 0.021	-0.04 ± 0.067	-0.116 ± 0.061	-0.248 ± 0.049	-0.0425 ± 0.0021	-0.089 ± 0.02	-0.189 ± 0.1	-0.0705 ± 0.005	0.016 ± 0.013	-0.007 ± 0.03	-0.039 ± 0.0099	-0.208 ± 0.02	-0.0145 ± 0.043	-0.033 ± 0.011	-0.0135 ± 0.026
3C:SRB	-0.0295 ± 0.023	-0.0275 ± 0.0078	-0.0065 ± 0.016	-0.0125 ± 0.023	0.003 ± 0.0071	-0.0185 ± 0.013	-0.079 ± 0.033	0.0105 ± 0.019	-0.005 ± 0.025	-0.062 ± 0.03	-0.007 ± 0.016	-0.0045 ± 0.011	-0.016 ± 0.0028	0.0135 ± 0.022	-0.088 ± 0.0042	0.006 ± 0.0085	0.007 ± 0.0085	0.01 ± 0.034
4H:CCL2/MCP-1	-0.0125 ± 0.094	0.0165 ± 0.081	0.03 ± 0.05	0.0135 ± 0.012	-0.0525 ± 0.029	-0.126 ± 0.0071	-0.196 ± 0.027	-0.051 ± 0.035	-0.0675 ± 0.005	-0.081 ± 0.052	-0.03 ± 0.018	-0.0365 ± 0.025	0.03 ± 0.024	-0.093 ± 0.023	-0.124 ± 0.0021	-0.0235 ± 0.029	-0.0455 ± 0.064	-0.008 ± 0.1
4H:CCL26/Eotaxin-3	-0.006 ± 0.025	-0.061 ± 0.035	-0.0335 ± 0.011	-0.0665 ± 0.022	-0.0255 ± 0.0064	-0.017 ± 0.044	0.0375 ± 0.028	-0.02 ± 0.044	-0.042 ± 0.0042	-0.121 ± 0.0064	0.022 ± 0.016	0.0185 ± 0.0092	0.016 ± 0.027	-0.0145 ± 0.013	-0.03 ± 0.042	-0.007 ± 0.024	0.006 ± 0.0085	-0.019 ± 0.018
4H:CD62P/P-selectin	-0.0225 ± 0.043	-0.0165 ± 0.005	-0.002 ± 0.02	0.0305 ± 0.022	-0.0065 ± 0.035	-0.0155 ± 0.018	-0.0055 ± 0.0078	0.005 ± 0.0042	-0.0505 ± 0.022	-0.164 ± 0.028	-0.0075 ± 0.043	0.0065 ± 0.042	-0.007 ± 0.059	0.028 ± 0.014	-0.0235 ± 0.018	0.005	-0.012 ± 0.038	0.009 ± 0.013
4H:CD87/uPAR	-0.0135 ± 0.032	0.0325 ± 0.00071	0.0455 ± 0.005	0.0355 ± 0.029	0.001 ± 0.082	-0.0065 ± 0.053	0.0315 ± 0.012	-0.053 ± 0.038	-0.0455 ± 0.037	-0.025 ± 0.062	0.04 ± 0.0071	0.039 ± 0.011	0.0345 ± 0.0064	0.0155 ± 0.0064	-0.026 ± 0.028	-0.0055 ± 0.0064	-0.0585 ± 0.07	-0.0565 ± 0.13
4H:CD106/VCAM-1	-0.002 ± 0.062	-0.029 ± 0.017	-0.0345 ± 0.019	-0.0295 ± 0.03	0.0345 ± 0.011	-0.016 ± 0.011	-0.078 ± 0.016	-0.12 ± 0.037	-0.143 ± 0.017	-0.25 ± 0.028	-0.003 ± 0.0028	-0.007 ± 0.018	-0.007 ± 0.017	0.013 ± 0.034	-0.0335 ± 0.044	-0.003 ± 0.034	0.03 ± 0.018	0.0215 ± 0.013
4H:SRB	-0.0185 ± 0.012	-0.007 ± 0.014	-0.0055 ± 0.013	-0.0065 ± 0.018	-0.0045 ± 0.013	-0.032 ± 0.023	-0.0795 ± 0.037	-0.008 ± 0.0042	-0.026 ± 0.027	-0.0615 ± 0.015	-0.002 ± 0.013	0.0025 ± 0.00071	-0.0105 ± 0.0035	-0.005 ± 0.011	-0.0815 ± 0.0021	0.0055 ± 0.005	0.0045 ± 0.012	0.0015 ± 0.028
4H:VEGFR2	0.023 ± 0.041	-0.013 ± 0.0085	-0.005 ± 0.044	0.043 ± 0.1	0.008 ± 0.042	0.003 ± 0.05	0.07 ± 0.051	-0.02	-0.019 ± 0.0099	-0.04 ± 0.0057	0.0205 ± 0.029	0.0085 ± 0.05	0.0155 ± 0.042	-0.0175 ± 0.035	-0.006 ± 0.044	-0.0375 ± 0.036	-0.0265 ± 0.06	-0.022 ± 0.15
BE3C:CD54/ICAM-1	0.006 ± 0.027	0.0015 ± 0.022	-0.0025 ± 0.036	0.0055 ± 0.052	-0.004 ± 0.011	0.012 ± 0.0099	-0.048 ± 0.0099	-0.004 ± 0.017	0.0025 ± 0.0021	0.031 ± 0.04	-0.0085 ± 0.0078	-0.0045 ± 0.013	0.01 ± 0.031	-0.008 ± 0.016	-0.001 ± 0.018	0.0175 ± 0.011	0.0185 ± 0.018	0.006 ± 0.0042
BE3C:CD87/uPAR	0.017 ± 0.024	-0.0045 ± 0.015	-0.0065 ± 0.03	0.05 ± 0.069	0.0025 ± 0.0078	0.01 ± 0.0071	-0.0355 ± 0.0078	-0.0365 ± 0.025	-0.0635 ± 0.013	-0.012 ± 0.013	-0.0115 ± 0.00071	0.0035 ± 0.00071	0.0125 ± 0.018	-0.01 ± 0.0071	-0.0025 ± 0.019	0.0145 ± 0.03	-0.0045 ± 0.023	0.0065 ± 0.03
BE3C:CXCL8/IL-8	0.0105 ± 0.018	0.02 ± 0.0099	0.0405 ± 0.019	0.0595 ± 0.057	-0.0165 ± 0.0035	-0.071 ± 0.033	-0.0405 ± 0.056	-0.016 ± 0.0042	-0.026 ± 0.0085	-0.0075 ± 0.04	0.0325 ± 0.0092	0.0355 ± 0.021	0.058 ± 0.068	-0.123 ± 0.0099	-0.192 ± 0.013	0.0095 ± 0.03	0.017 ± 0.021	0.032 ± 0.0014
